Laboratory results published in PubChem BioAssay (NCI).
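Protocol summary: plate cells (96-well), add compound at 5 concentrations, incubate 48 h, interpolate endpoints linearly. GI50 marks 50% less growth. Definition used: TGI = concentration required for complete inhibition of growth.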

Tests used:
Assay in all cases: DTP human tumour cell line panel, 48 h
T-47D breast = system: T-47D breast
RPMI-8226 leukemia = system: RPMI-8226 leukemia
A498 renal = system: A498 renal
CAKI-1 renal = system: CAKI-1 renal
U251 CNS = system: U251 CNS
SF-295 CNS = system: SF-295 CNS
HOP-62 NSCLC = system: HOP-62 NSCLC
HS 578T breast = system: HS 578T breast
LOX IMVI melanoma = system: LOX IMVI melanoma
UACC-62 melanoma = system: UACC-62 melanoma
COLO 205 colon = system: COLO 205 colon
SW-620 colon = system: SW-620 colon
SR leukemia = system: SR leukemia
EKVX NSCLC = system: EKVX NSCLC
NCI/ADR-RES ovarian = system: NCI/ADR-RES ovarian
NCI-H522 lung = system: NCI-H522 lung
HCC-2998 colon = system: HCC-2998 colon
SF-539 CNS = system: SF-539 CNS
NCI-H226 lung = system: NCI-H226 lung
MDA-MB-435 = system: MDA-MB-435
MCF7 breast = system: MCF7 breast
UACC-257 melanoma = system: UACC-257 melanoma
MALME-3M melanoma = system: MALME-3M melanoma
SK-MEL-5 melanoma = system: SK-MEL-5 melanoma
SNB-75 CNS = system: SNB-75 CNS
DU-145 prostate = system: DU-145 prostate
OVCAR-8 ovarian = system: OVCAR-8 ovarian
CCRF-CEM leukemia = system: CCRF-CEM leukemia
SK-MEL-2 melanoma = system: SK-MEL-2 melanoma
HCT-116 colon = system: HCT-116 colon
OVCAR-5 ovarian = system: OVCAR-5 ovarian
OVCAR-4 ovarian = system: OVCAR-4 ovarian
SK-OV-3 ovarian = system: SK-OV-3 ovarian
HCT-15 colon = system: HCT-15 colon
TK-10 renal = system: TK-10 renal
NCI-H23 lung = system: NCI-H23 lung
HOP-92 NSCLC = system: HOP-92 NSCLC
PC-3 prostate = system: PC-3 prostate
MDA-MB-231 breast = system: MDA-MB-231 breast
MOLT-4 leukemia = system: MOLT-4 leukemia
UO-31 renal = system: UO-31 renal
786-0 renal = system: 786-0 renal
A549 NSCLC = system: A549 NSCLC
IGROV1 ovarian = system: IGROV1 ovarian
BT-549 breast = system: BT-549 breast
KM12 colon = system: KM12 colon
K-562 leukemia = system: K-562 leukemia
ACHN renal = system: ACHN renal
SF-268 CNS = system: SF-268 CNS
HT29 colon = system: HT29 colon
NCI-H460 lung = system: NCI-H460 lung
RXF 393 renal = system: RXF 393 renal
SNB-19 CNS = system: SNB-19 CNS
M14 melanoma = system: M14 melanoma
HL-60(TB) leukemia = system: HL-60(TB) leukemia
OVCAR-3 ovarian = system: OVCAR-3 ovarian
SK-MEL-28 melanoma = system: SK-MEL-28 melanoma
SN12C renal = system: SN12C renal

Q: `CCO/C=N/C1=C(C#N)C(c2ccc(F)cc2)c2sc3c(CC)cccc3c2O1` (stereo unspecified) was tested. Which GI50 (T-47D breast) did it give?
A: 0.44 µM

Q: What about the TGI (T-47D breast) of the same compound?
A: 26.5 µM

Q: And the GI50 (RPMI-8226 leukemia)?
A: 0.331 µM

Q: And the TGI (RPMI-8226 leukemia)?
A: 5.52 µM

Q: And the GI50 (A498 renal)?
A: 0.199 µM

Q: And the TGI (A498 renal)?
A: 0.897 µM

Q: What about the GI50 (CAKI-1 renal) of the same compound?
A: 0.359 µM

Q: What about the TGI (CAKI-1 renal) of the same compound?
A: 17.1 µM

Q: And the GI50 (U251 CNS)?
A: 0.468 µM

Q: What about the TGI (U251 CNS) of the same compound?
A: 11.8 µM

Q: What about the GI50 (SF-295 CNS) of the same compound?
A: 0.27 µM

Q: What about the TGI (SF-295 CNS) of the same compound?
A: 2.6 µM

Q: And the GI50 (HOP-62 NSCLC)?
A: 0.453 µM

Q: What about the TGI (HOP-62 NSCLC) of the same compound?
A: 17.6 µM

Q: And the GI50 (HS 578T breast)?
A: 0.385 µM

Q: And the TGI (HS 578T breast)?
A: 13 µM

Q: What about the GI50 (LOX IMVI melanoma) of the same compound?
A: 0.732 µM

Q: And the TGI (LOX IMVI melanoma)?
A: 11.1 µM

Q: What about the GI50 (UACC-62 melanoma) of the same compound?
A: 0.371 µM

Q: What about the TGI (UACC-62 melanoma) of the same compound?
A: 17.6 µM

Q: And the GI50 (COLO 205 colon)?
A: 0.4 µM

Q: And the TGI (COLO 205 colon)?
A: 2.84 µM

Q: What about the GI50 (SW-620 colon) of the same compound?
A: 0.478 µM

Q: And the TGI (SW-620 colon)?
A: 13.4 µM

Q: And the GI50 (SR leukemia)?
A: 0.451 µM

Q: And the TGI (SR leukemia)?
A: 14.9 µM

Q: What about the GI50 (EKVX NSCLC) of the same compound?
A: 0.488 µM

Q: What about the TGI (EKVX NSCLC) of the same compound?
A: 16.7 µM

Q: And the GI50 (NCI/ADR-RES ovarian)?
A: 0.226 µM

Q: And the TGI (NCI/ADR-RES ovarian)?
A: 3.66 µM

Q: What about the GI50 (NCI-H522 lung) of the same compound?
A: 0.209 µM

Q: What about the TGI (NCI-H522 lung) of the same compound?
A: 5.61 µM

Q: And the GI50 (HCC-2998 colon)?
A: 0.641 µM

Q: And the TGI (HCC-2998 colon)?
A: 6.65 µM

Q: What about the GI50 (SF-539 CNS) of the same compound?
A: 0.28 µM

Q: What about the TGI (SF-539 CNS) of the same compound?
A: 1.23 µM

Q: And the GI50 (NCI-H226 lung)?
A: 1.03 µM

Q: And the TGI (NCI-H226 lung)?
A: 11.6 µM

Q: And the GI50 (MDA-MB-435)?
A: 0.16 µM

Q: And the TGI (MDA-MB-435)?
A: 0.446 µM

Q: What about the GI50 (MCF7 breast) of the same compound?
A: 0.361 µM

Q: What about the TGI (MCF7 breast) of the same compound?
A: 12.5 µM

Q: What about the GI50 (UACC-257 melanoma) of the same compound?
A: 12.7 µM

Q: What about the TGI (UACC-257 melanoma) of the same compound?
A: 31.3 µM

Q: And the GI50 (MALME-3M melanoma)?
A: 0.542 µM

Q: What about the TGI (MALME-3M melanoma) of the same compound?
A: 23.8 µM

Q: And the GI50 (SK-MEL-5 melanoma)?
A: 0.482 µM

Q: What about the TGI (SK-MEL-5 melanoma) of the same compound?
A: 11.4 µM

Q: And the GI50 (SNB-75 CNS)?
A: 0.206 µM

Q: What about the TGI (SNB-75 CNS) of the same compound?
A: 2.83 µM

Q: And the GI50 (DU-145 prostate)?
A: 0.401 µM

Q: And the TGI (DU-145 prostate)?
A: 13 µM

Q: What about the GI50 (OVCAR-8 ovarian) of the same compound?
A: 0.508 µM

Q: And the TGI (OVCAR-8 ovarian)?
A: 15.3 µM

Q: What about the GI50 (CCRF-CEM leukemia) of the same compound?
A: 0.282 µM

Q: And the TGI (CCRF-CEM leukemia)?
A: 6.32 µM

Q: What about the GI50 (SK-MEL-2 melanoma) of the same compound?
A: 0.597 µM

Q: What about the TGI (SK-MEL-2 melanoma) of the same compound?
A: 21.5 µM

Q: And the GI50 (HCT-116 colon)?
A: 0.395 µM

Q: What about the TGI (HCT-116 colon) of the same compound?
A: 11.2 µM

Q: What about the GI50 (OVCAR-5 ovarian) of the same compound?
A: 0.67 µM

Q: And the TGI (OVCAR-5 ovarian)?
A: 14.6 µM

Q: And the GI50 (OVCAR-4 ovarian)?
A: 1.57 µM

Q: And the TGI (OVCAR-4 ovarian)?
A: 17.8 µM

Q: What about the GI50 (SK-OV-3 ovarian) of the same compound?
A: 0.812 µM

Q: What about the TGI (SK-OV-3 ovarian) of the same compound?
A: 21.6 µM

Q: And the GI50 (HCT-15 colon)?
A: 0.389 µM

Q: And the TGI (HCT-15 colon)?
A: 10.9 µM

Q: And the GI50 (TK-10 renal)?
A: 8.08 µM

Q: What about the TGI (TK-10 renal) of the same compound?
A: 24 µM

Q: And the GI50 (NCI-H23 lung)?
A: 0.763 µM

Q: And the TGI (NCI-H23 lung)?
A: 14.4 µM

Q: And the GI50 (HOP-92 NSCLC)?
A: 0.193 µM

Q: And the TGI (HOP-92 NSCLC)?
A: 6.12 µM

Q: What about the GI50 (PC-3 prostate) of the same compound?
A: 0.236 µM

Q: And the TGI (PC-3 prostate)?
A: 11.4 µM

Q: What about the GI50 (MDA-MB-231 breast) of the same compound?
A: 0.664 µM

Q: What about the TGI (MDA-MB-231 breast) of the same compound?
A: 14.3 µM

Q: What about the GI50 (MOLT-4 leukemia) of the same compound?
A: 0.629 µM

Q: And the TGI (MOLT-4 leukemia)?
A: 13.4 µM

Q: And the GI50 (UO-31 renal)?
A: 0.637 µM

Q: What about the TGI (UO-31 renal) of the same compound?
A: 17 µM

Q: And the GI50 (786-0 renal)?
A: 0.651 µM

Q: What about the TGI (786-0 renal) of the same compound?
A: 13.2 µM

Q: What about the GI50 (A549 NSCLC) of the same compound?
A: 0.518 µM

Q: And the TGI (A549 NSCLC)?
A: 14.2 µM

Q: What about the GI50 (IGROV1 ovarian) of the same compound?
A: 0.401 µM

Q: And the TGI (IGROV1 ovarian)?
A: 14.1 µM

Q: What about the GI50 (BT-549 breast) of the same compound?
A: 1.69 µM

Q: What about the TGI (BT-549 breast) of the same compound?
A: 8.53 µM

Q: And the GI50 (KM12 colon)?
A: 0.384 µM

Q: And the TGI (KM12 colon)?
A: 13.5 µM

Q: And the GI50 (K-562 leukemia)?
A: 0.292 µM

Q: And the TGI (K-562 leukemia)?
A: 13.6 µM

Q: And the GI50 (ACHN renal)?
A: 0.711 µM

Q: And the TGI (ACHN renal)?
A: 14.1 µM

Q: What about the GI50 (SF-268 CNS) of the same compound?
A: 2.03 µM

Q: What about the TGI (SF-268 CNS) of the same compound?
A: 17.4 µM

Q: And the GI50 (HT29 colon)?
A: 0.351 µM

Q: And the TGI (HT29 colon)?
A: 11.2 µM

Q: What about the GI50 (NCI-H460 lung) of the same compound?
A: 0.379 µM

Q: What about the TGI (NCI-H460 lung) of the same compound?
A: 5.26 µM

Q: What about the GI50 (RXF 393 renal) of the same compound?
A: 0.177 µM

Q: And the TGI (RXF 393 renal)?
A: 0.531 µM

Q: And the GI50 (SNB-19 CNS)?
A: 0.466 µM

Q: What about the TGI (SNB-19 CNS) of the same compound?
A: 15.8 µM

Q: What about the GI50 (M14 melanoma) of the same compound?
A: 0.292 µM

Q: And the TGI (M14 melanoma)?
A: 12.8 µM

Q: What about the GI50 (HL-60(TB) leukemia) of the same compound?
A: 0.337 µM

Q: And the TGI (HL-60(TB) leukemia)?
A: 5.25 µM

Q: What about the GI50 (OVCAR-3 ovarian) of the same compound?
A: 0.454 µM

Q: And the TGI (OVCAR-3 ovarian)?
A: 13 µM

Q: What about the GI50 (SK-MEL-28 melanoma) of the same compound?
A: 1.28 µM

Q: What about the TGI (SK-MEL-28 melanoma) of the same compound?
A: 19.7 µM

Q: What about the GI50 (SN12C renal) of the same compound?
A: 0.609 µM

Q: What about the TGI (SN12C renal) of the same compound?
A: 12.8 µM
